According to PMC12948223, “HSP70 Interactome‐Mediated Proteolysis Targeting Chimera (HSP70‐PROTAC) for Ferroptosis‐Driven Cancer Treatment” (Advanced Science, 2025):
Like-named read-outs stand apart in the source and are kept apart here. Values belong to the molecule of their own block, whether it stands above or below them.

Experiments:
GPX4 [1] = biological target: T1, GPX4 (Homo sapiens, UniProt P36969); design: determine the changes in the endogenous levels of GPX4 by western blot assay; endogenous in cells; host or cells: HT1080 fibrosarcoma cells, including siRNA-knockdown derivatives; method as in PMID 39230973; conditions: cited from earlier work
T1 sequence (P36969 1-170 isoform P36969-2): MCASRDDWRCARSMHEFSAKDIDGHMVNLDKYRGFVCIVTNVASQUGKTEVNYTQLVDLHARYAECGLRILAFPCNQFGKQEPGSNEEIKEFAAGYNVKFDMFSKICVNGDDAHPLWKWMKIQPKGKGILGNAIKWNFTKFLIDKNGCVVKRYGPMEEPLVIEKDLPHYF

GPX4 [2] = biological target: T1, GPX4; assay: GPX4 degradation by western blot in 786-O cells; format: cell-based; design: endogenous in cells; host or cells: 786-O; conditions: up to 10 µM, 24 h; sentence reads 'neither ... nor ... induced any degradation effect' = no degradation
Text: As previously mentioned, drug resistance and limited application scope are the significant challenges of traditional PROTAC, due partly to CRBN/VHL mutations or low expression. In this study, we investigated whether the developed HSP70‐PROTAC could address these challenges. Specifically, we examined the developed HSP70‐PROTAC in scenarios where VHL‐ or CRBN‐based PROTACs are ineffective due to intrinsic or acquired resistance. Several previously reported representative GPX4‐targeting degraders, including dGPX4 (CRBN‐based PROTAC, Figure 1A), 8e (VHL‐based PROTAC, Figure 1B), and GDCNF‐11/2 (HSP90‐based HIM‐PROTAC, Figure 1C, the structure of the GDCNF‐11 derivative GDCNF‐2 was not shown) were selected as control agents.^[ [18], [23], [28] ^] […] The clear cell renal cell carcinoma (ccRCC) 786‐O cell line is a well‐established cancer cell model characterized by an intrinsic deficiency in VHL expression.^[ [43], [44], [45] ^] We also confirmed this characteristic through evaluating the VHL expression levels in several randomly selected cancer cell lines (Figure S10A, Supporting Information). We further selected 786‐O cells as a model to confirm whether HSP70‐PROTAC could be used in such cases as an alternative to VHL‐based degraders, because VHL‐based PROTACs cannot be used to treat kidney cancer with a mutation or deletion in the VHL gene.
(§1) Cells were seeded at a density of 4 × 10^5 cells well^−1 in 6‐well plates and allowed to incubate overnight. Cells were incubated with the indicated treatments. Thereafter, the cells were collected and lysed with RIPA buffer containing serine protease and phosphatase inhibitors for 30 min on ice. Proteins were quantified by using a BCA protein assay kit (Beyotime). Subsequently, SDS‐PAGE sample loading buffer was added, and the mixture was heated in a 100 °C metal bath for 10 min to denature the proteins. Protein samples from each group were separated by SDS‐PAGE gel and transferred to a PVDF membrane. After blocking with 5% skim milk for 1 h at room temperature, primary antibodies (GPX4: abcam (#ab125066, 1:1000); Hsp70: abcam (#ab2787, 1:1000); CHIP: HUABIO (#ST7108, 1:1000); UpingBio Technology Co., Ltd. (BRD4, #YP‐Ab‐18034, 1:1000; BAG‐1, #YP‐Ab‐00575, 1:1000); GAPDH: Proteintech (#60004‐1‐Ig, 1:50 000)) were used and incubated at 4 °C overnight on a rotary shaker. After washing the membranes with TBST buffer five times, the membranes were incubated with a second antibody (Cell Signaling Technology, #7074S, 1:1000 and #7076S, 1:1000) at room temperature for 2 h. Ultimately, the membrane was washed five times, and the antibody‐protein complexes were visualized using an ECL luminescence reagent (Biosharp, Shanghai, China). The relative intensities of the bands were analyzed by ImageJ and normalized to a loading control.

HT1080 cells [3] = test system: HT1080 cells; design: method as in PMID 39230973; conditions: same experimental conditions, cited from earlier work
ferroptosis = test system: ferroptosis; design: method as in PMID 34506134, PMID 35648631; conditions: cited from earlier work
GPX4 [4] = biological target: T1, GPX4; assay: GPX4 degradation by western blot in HT1080 cells; format: cell-based; design: determine the changes in the endogenous levels of GPX4 by western blot assay; endogenous in cells; host or cells: HT1080 fibrosarcoma cells, including siRNA-knockdown derivatives; conditions: HT1080 cells, 0.3 µM, 24 h (Figure 3A)
Description: To evaluate the GPX4 degradation efficiency of the synthesized HSP70‐PROTACs GDAz‐1–14, we first selected ferroptosis‐sensitive HT1080 fibrosarcoma cells (highly‐expressing GPX4) treated with different concentrations (0.1, 0.3, 1, and 3 µM) of these chimeras to determine the changes in the endogenous levels of GPX4 by western blot assay after 24 h treatment. […] This finding underscores the crucial role of the linker in HSP70‐PROTAC‐mediated protein degradation. […] In the case of alkyl chain derivatives (GDAz‐6–10), elongating the length of the linker generally led to a decreased GPX4 degrading activity. […] Thus, GDAz‐3 was selected for further evaluation.
as §1

Hsp70 = biological target: Hsp70; design: method as in PMID 18729127; conditions: cited from earlier work
HT1080 cells [5] = assay: Cell viability CCK-8 assay; format: cell-based, human; conditions: CCK-8, 48 h, read-out: IC50 (cytotoxicity)
Description: To determine whether GPX4 degradation following treatment with HSP70‐PROTACs triggers cancer cell ferroptosis, we initially assessed the viability of HT1080 cells using the CCK‐8 assay after treatment with various concentrations of the tested compounds for 48 h. GPX4 inhibitor ML162, HSP70 inhibitor apoptozole, and two GPX4 non‐degradable HSP70‐PROTAC molecules, GDAz‐Neg1 and GDAz‐Neg2, were selected as controls. […] This remarkable activity might partly be ascribed to the high cell permeability conferred by the piperazine ring. […] We speculated that the potent anti‐proliferative activity of GDAz‐Neg2 may be attributed to the GPX4 inhibition.
The compounds under investigation were initially dissolved in dimethyl sulfoxide (DMSO) to generate stock solutions with a concentration of 10 mM. HT1080 cells or other tested cells were seeded in 96‐well plates at a density of 3000–5000 cells well^−1 and cultured at 37 °C. Following a 24‐h incubation period, the tested compounds were added to the wells at various concentrations (the DMSO stock solutions of all the tested compounds were diluted with culture medium to obtain the designated concentration containing a final concentration of DMSO less than 0.5% (v/v)). The cells were then cultured for an additional 48 or 72 h. Cell Counting Kit 8 (CCK‐8) assay was conducted to examine the effects of the tested compounds on cell viability, and the absorbance was measured at a wavelength of 450 nm. The IC50 values were determined utilizing GraphPad Prism software through nonlinear regression analysis. All experiments were independently repeated at least three times.

HT1080 xenograft tumor = HT1080 xenograft tumor mouse model, antitumor efficacy and safety; format: in vivo; conditions: 30 mg/kg IP once daily
Description: Motivated by the aforementioned in vitro findings, we subsequently sought to evaluate the in vivo antitumor efficacy of GDAz‐3 using an HT1080 xenograft tumor mouse model. The tumor‐bearing mice were randomly divided into six groups, minimizing weight and tumor size differences among the groups (n = 6 in each group). The treatment group mice were administered once daily by intraperitoneal injection (IP) with GDAz‐3 at a dosage of 30 or 60 mg kg^−1, while the control group animals were treated with the corresponding solvent, ML162, and apoptozole at a dosage of 30 mg kg^−1. Additionally, we set up a drug combination group to confirm the superiority of GDAz‐3. After treatment for 17 days, animals were humanely euthanized and the tumors were excised (Figure 7B). […] The advantage of the safety of GDAz‐3 was also determined by the hematoxylin and eosin (H&E) staining. […] In general, compared with the single inhibitor or their combination, the in vivo antitumor study confirmed the efficacy and safety of GDAz‐3.
The experimental procedures of the animal experiments were permitted by the Hangzhou Institute of Medicine (HIM), Chinese Academy of Sciences (AP2024‐07‐0010). Male BALB/c nude mice (6 weeks old) were housed under pathogen‐free conditions, maintained at a constant room temperature, and fed standard rodent chow and water. An HT1080 fibrosarcoma xenograft model in nude mice was established through subcutaneous transplantation. When the tumors emerged, the mice were randomly divided into six groups with six mice in each group: GDAz‐3‐treated at 30 or 60 mg kg^−1 group and control groups, including the vehicle group, and each of the two inhibitor‐treated groups (ML162 and apoptozole) at 30 mg kg^−1, and their combinations. The mice were intraperitoneally (IP) injected daily according to their body weight. Body weight and tumor size were measured every other day, and the tumor volume and body weight were recorded every other day after drug treatment. After treatment, the animals were euthanized by cervical dislocation, and the tumor bulks were peeled off and weighed. The organ tissues (tumor, heart, liver, spleen, lung, and kidney) were harvested and fixed with 4% paraformaldehyde for hematoxylin‐eosin (H&E) and immunohistochemistry (IHC) staining. In addition, the expression of GPX4 in tumor samples was analyzed in vehicle‐ and GDAz‐3‐treated groups by western blot assay.

Hsc70 = biological target: Hsc70; design: method as in PMID 18729127; conditions: cited from earlier work
BRD4 = biological target: T2, BRD4 (Homo sapiens, UniProt O60885); assay: BRD4 degradation by western blot in MOLT-4 cells; format: cell-based; conditions: 48 h
T2 construct: effectively degrading additional endogenous bromodomain‐containing protein 4 (BRD4) in cancer cells; endogenous in cells; host or cells: MOLT-4
Text: To expand beyond the GPX4 degradation, we next sought to investigate the potential of the HSP70 complex to facilitate the degradation of additional proteins. We selected oncoprotein bromodomain containing 4 (BRD4), a degradable protein that not only has been widely used as a model substrate for development of new technologies in the TPD field, but also serves as a validated therapeutic target for multiple cancers. We synthesized three heterobifunctional compounds (GDAz‐15–17) by conjugating the HSP70 binding moiety apoptozole to the well‐established BRD4 inhibitor (+)‐JQ‐1 (a potent, specific, and reversible BRD4 inhibitor extensively applied in TPD) via PEG linkers of varying lengths (Figure 8E; Scheme S6, Supporting Information). T lymphoblast MOLT‐4 cell line with BRD4 overexpression was selected for biological evaluation.
as §1, with “After washing the membranes with TBST buffer five times, the membranes were incubated with a second antibody (Cell Signaling Technology, #7074S, 1:1000 and #7076S, 1:1000) at room temperature for 2 h.” left out

- GPX4 degradation in 786-O cells (GPX4 [2]): induced any degradation effect
Structure (SMILES): COc1c(C)cnc(Cn2cnc3c(NCCC4CCN(C(=O)Cn5cc(COc6ccc(N(C(=O)CCl)C(C(=O)NCCc7ccccc7)c7cccs7)cc6Cl)nn5)CC4)nc(N)nc32)c1C (stereo not drawn) [GDCNF-11]
- Onset of GPX4 protein degradation (GPX4 [1]): initiating GPX4 protein degradation after 12 h
- IC50 (HT1080 cells [3]; read-out: IC50 (antiproliferative activity)): 790 nM
- Ferroptosis selectivity index (HT1080 cells [3]): about 45 fold

Structure (SMILES): COC(=O)c1ccc([C@@H]2c3[nH]c4ccccc4c3C[C@@H](C(=O)OC)N2C(=O)CCl)cc1 [RSL3]
- Ferroptosis selectivity (SI) (ferroptosis): 3.1

Structure (SMILES): COc1ccc(-c2nc(-c3cc(C(F)(F)F)cc(C(F)(F)F)c3)n(Cc3ccc(C(N)=O)cc3)c2-c2ccc(OC)cc2)cc1 [Apoptozole, reference compound]
- GPX4 degradation (GPX4 [4]): this degradation effect was not observed
- Kd (Hsp70): 140 nM
- IC50 (HT1080 cells [5]): 17000 nM
- Toxic effects during treatment (HT1080 xenograft tumor): serious toxic effects such as death
- Kd (Hsc70): 210 nM

- BRD4 degradation (BRD4; 0.5 µM): nearly thorough BRD4 degradation
- BRD4 degradation (BRD4): effectively trigger BRD4 degradation
Structure (SMILES): COc1ccc(-c2nc(-c3cc(C(F)(F)F)cc(C(F)(F)F)c3)n(Cc3ccc(C(=O)NCCOCCOCCNC(=O)C[C@@H]4N=C(c5ccc(Cl)cc5)c5c(sc(C)c5C)-n5c(C)nnc54)cc3)c2-c2ccc(OC)cc2)cc1 [GDAz-15, (S)-4-((2-(3,5-bis(trifluoromethyl)phenyl)-4,5-bis(4-methoxyphenyl)-1H-imidazol-1-yl)methyl)-N-(2-(2-(2-(2-(4-(4-chlorophenyl)-2,3,9-trimethyl-6H-thieno[3,2-f][1,2,4]triazolo[4,3-a][1,4]diazepin-6-yl)acetamido)ethoxy)ethoxy)ethyl)benzamide]
